Results published in patent US20260072027A1, “Peptides And Method” (Queen Mary University of London, priority 2022, published 2026).

Test system: CD8+ T-cells (PBMCs)
Assay: In vitro peptide stimulation and T-cell proliferation assay, CD8+
Format: cell-based, human
Conditions: for CD8+ mean SI (stimulation index): Study cohort 2
Outline: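 CellTrace Violet-labelled fresh PBMCs from type 1 diabetic and healthy donors cultured 7 days in 5% autologous plasma with or without 20 μg/ml insulin peptides. Proliferation measured by flow cytometry as dye dilution within the CD4+ or CD8+ subset. Stimulation index = % proliferation stimulated/% unstimulated.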

Sequence: LVEALYLVCGERGFFYTPKT [insulin B:11-30 native peptide]
- CD8+ T-cell response, subjects with SI > 1 (%) (Controls (N = 11)): (63.6%)
- CD8+ T-cell response, subjects with SI > 3 (%) (Controls (N = 11)): (45.5%)
- CD8+ T-cell response, subjects with SI > 5 (%) (Controls (N = 11)): (27.3%)
- CD8+ T-cell response, subjects with SI > 10 (%) (Controls (N = 11)): (18.2%)
- CD8+ T-cell response, subjects with SI > 1 (%) (Controls (N = 11), listed as Nt-INSP-4): 63.6%
- CD8+ T-cell response, subjects with SI > 1 (%) (Type 1 diabetes (N = 18)): (72.2%)
- CD8+ T-cell response, subjects with SI > 3 (%) (Type 1 diabetes (N = 18)): (55.6%)
- CD8+ T-cell response, subjects with SI > 5 (%) (Type 1 diabetes (N = 18)): (38.9%)
- CD8+ T-cell response, subjects with SI > 10 (%) (Type 1 diabetes (N = 18)): (33.3%)
- CD8+ T-cell response, subjects with SI > 1 (%) (Type 1 diabetes (N = 18), listed as Nt-INSP-4): 72.2%
- CD8+ mean SI (stimulation index) (controls): 5.948±3.125
- CD8+ mean SI (stimulation index) (type 1 diabetes): 405.8±325.5
